Experimental data reported in patent EP4692114A1, “CALCITONIN ANALOGUE, AND DERIVATIVE THEREOF AND USE THEREOF” (Hangzhou Sciwind Biosciences Co., Ltd., priority 2023, dated 2024).
*1 amine or outer side, *2 acyl side, *3 side chain or, on linkers, in order; H or OH if unused. Where a SMILES comes first, the peptide text is derived from it. The star is where a group is joined. C20 diacid = O=C(O)CCCCCCCCCCCCCCCCCCC(=O)*; C18 diacid = O=C(O)CCCCCCCCCCCCCCCCC(=O)*; γGlu = O=C(O)[C@H](CCC(=O)[*:2])N[*:1]

Experiments:
[1] = Heat accelerated stability assay under a neutral condition; assay type: physicochemical; conditions: pH about 7.4, 40°C; for Changes in characteristics or properties, 0d / Changes in characteristics or properties, 7d: 1 mg/mL, phosphate; for Concentration change (7d-0d)/%: Day 7 vs Day 0, reversed phase chromatography; for Purity Change% (7d-0d) / Purity Change% (26d-0d): purity from reversed phase chromatography-214 nm; for Purity Change% (7d-0d): Day 7 vs Day 0; for Purity Change% (26d-0d): Day 26 vs Day 0
Procedure, shortened: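 Peptide (1 mg/mL) with sodium dihydrogen phosphate (1.42 mg/mL) in water, pH ~7.4, was sterile-filtered and stored at 40 °C, sampled on days 7 and 26. After centrifugation, concentration and purity (target/total peak area) were measured by reversed-phase HPLC at 214 and 280 nm, water/0.05% TFA to acetonitrile gradient, 25 °C column.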

human amylin receptors = target: T1, human amylin receptors (Homo sapiens, UniProt O60896+P30988); test: Luciferase assay of amylin (amylin receptor/CRE-luc cell line); assay type: cell-based; conditions: stably transfected amylin receptor/CRE-luc CHO cells (CHO-K1/Gal5/AMY3), 24 hours incubation, luciferase readout;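 note: agonist potency from luminescence of cAMP response element-driven luciferase, EC50 derived from a standard curve of signal versus compound concentration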
T1 sequence (P30988 25-474): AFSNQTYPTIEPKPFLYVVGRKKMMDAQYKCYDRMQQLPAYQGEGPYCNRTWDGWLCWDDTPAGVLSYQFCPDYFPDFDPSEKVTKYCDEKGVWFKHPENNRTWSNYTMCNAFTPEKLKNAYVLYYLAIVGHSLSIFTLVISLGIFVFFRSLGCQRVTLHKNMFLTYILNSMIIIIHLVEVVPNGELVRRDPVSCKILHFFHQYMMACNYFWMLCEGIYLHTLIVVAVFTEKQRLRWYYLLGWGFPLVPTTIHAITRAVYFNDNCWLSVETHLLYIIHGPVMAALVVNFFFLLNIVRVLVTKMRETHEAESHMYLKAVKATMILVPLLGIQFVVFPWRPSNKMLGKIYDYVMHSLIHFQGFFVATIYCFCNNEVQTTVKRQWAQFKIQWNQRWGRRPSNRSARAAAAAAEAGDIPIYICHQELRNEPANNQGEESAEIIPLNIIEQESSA
T1 sequence (O60896 24-148 partner): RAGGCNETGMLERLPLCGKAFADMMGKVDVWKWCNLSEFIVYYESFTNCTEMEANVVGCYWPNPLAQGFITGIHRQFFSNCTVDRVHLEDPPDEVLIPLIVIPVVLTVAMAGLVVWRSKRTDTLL
From the text: The objective of this assay is to test the activity or potency of calcitonin analogues or derivatives on human amylin receptors in vitro using a luciferase assay.
Using the standard protocol, CHO-K1/Gal5/AMY3 cells (purchased from GenScript, with the calcitonin receptor and the receptor activity modifying peptide (RAMP) constructed already) were transfected with a plasmid containing a luciferase expression cassette driven by multiple copies of cAMP response elements (CREs). The cells were cultured in an F12 medium containing 200 ug/mL Zeocin, 2 ug/mL puromycin, 100 ug/mL hygromycin, and 400 ug/mL G418 to afford a stably transfected amylin receptor/CRE-luc cell line.
To each well of a white 96-well plate was added 50 µL of the tested sample solution at a respective concentration.
The stably transfected amylin receptor/CRE-luc CHO cells were resuspended in the growth medium at a certain density, and 50 µL of the cell suspension was added at a density of about 20000 cells per well to the white 96-well plate containing the tested sample solution. After incubation of 24 hours at 37°C and 5% CO2, 100 µL of a Luciferase substrate was added to each well, incubated for 3 minutes, and finally was tested for luminescence on SpectraMax L (Molecular Devices) with the software SoftMax Pro 7.0.3 GxP. A standard curve was plotted using the fluorescent intensities for calculation of EC50.

[2] = Study of weight change and food consumption in rats; assay type: in vivo, SD (Sprague Dawley) rats; conditions: SD rats, subcutaneous, 10 nmol/kg; for Effect on reducing food intake: accumulated food intake recorded every 24 hours (FIGs. 7 and 9); for Effect on reducing body weight: recorded every 24 hours (FIGs. 6 and 8)
From the text: SD (Sprague Dawley) rats weighing 200-250 g were used for this study. The rats were received at least 10-14 days before the study began such that they could accommodate to the experimental environment. After arrival, they were exposed to a reversed light/dark cycle (i.e., lights switched off in daytime and on in nighttime) for two weeks and were individually housed for the first week so as to ensure high data accuracy and test sensitivity. Throughout the acclimation and experiment period, the rats had free access to food and water. 5-8 rats were assigned to each testing group for the derivatives and were subcutaneously administered the derivatives at a dose of 10 nmol/kg or a vehicle, and the dosing timepoint was recorded for each group. After dosing, the rats were put back into cages where they were housed and could have access to food and water. Food consumption and weight change of the rats were recorded online or manually every 24 hours.

Row | SMILES | Changes in characteristics or properties, 0d [1] | Changes in characteristics or properties, 7d [1] | EC50 (human amylin receptors) | Purity Change% (26d-0d) [1] | Concentration change (7d-0d)/% [1] | Purity Change% (7d-0d) [1] | Effect on reducing food intake [2] | Effect on reducing body weight [2]
1 | CC(C)C[C@H](NC(=O)[C@H](CCCNC(=N)N)NC(=O)CNC(=O)[C@H](CC(C)C)NC(=O)[C@@H](NC(=O)[C@H](C)NC(=O)[C@@H](NC(=O)[C@H](CO)NC(=O)[C@H](CC(C)C)NC(=O)[C@H](CCC(N)=O)NC(=O)[C@H](CO)NC(=O)[C@H](C)NC(=O)CC[C@H](NC(=O)CCCCCCCCCCCCCCCCCCC(=O)O)C(=O)O)[C@@H](C)O)C(C)C)C(=O)N[C@@H](CO)C(=O)N[C@@H](CCC(N)=O)C(=O)N[C@@H](CCC(=O)O)C(=O)N[C@@H](CC(C)C)C(=O)N[C@@H](Cc1c[nH]cn1)C(=O)N[C@@H](CCCNC(=N)N)C(=O)N[C@@H](CC(C)C)C(=O)N[C@@H](CCC(N)=O)C(=O)N[C@@H](CC(=O)O)C(=O)N[C@@H](Cc1ccc(O)cc1)C(=O)N1CCC[C@H]1C(=O)N[C@@H](CCCNC(=N)N)C(=O)N[C@H](C(=O)N[C@@H](CC(=O)O)C(=O)N[C@H](C(=O)NCC(=O)N[C@@H](C)C(=O)N[C@@H](CCC(=O)O)C(=O)N[C@@H](CO)C(=O)N1CCC[C@H]1C(N)=O)C(C)C)[C@@H](C)O [M20] ({C20 diacid-γGlu}-ASQLSTAVLGRLSQELHRLQDYPRTDVGAESP-NH2) | – | – | 17 pM | – | – | – | prominent effect | prominent effect
2 | CC(C)C[C@H](NC(=O)[C@H](CCCNC(=N)N)NC(=O)CNC(=O)[C@H](CC(C)C)NC(=O)[C@@H](NC(=O)[C@H](C)NC(=O)[C@@H](NC(=O)[C@H](CO)NC(=O)[C@H](CC(C)C)NC(=O)[C@H](CCC(N)=O)NC(=O)[C@H](CO)NC(=O)[C@H](C)NC(=O)CC[C@H](NC(=O)CCCCCCCCCCCCCCCCCCC(=O)O)C(=O)O)[C@@H](C)O)C(C)C)C(=O)N[C@@H](CO)C(=O)N[C@@H](CCC(N)=O)C(=O)N[C@@H](CCC(=O)O)C(=O)N[C@@H](CC(C)C)C(=O)N[C@@H](Cc1c[nH]cn1)C(=O)N[C@@H](CCCNC(=N)N)C(=O)N[C@@H](CC(C)C)C(=O)N[C@@H](CCC(N)=O)C(=O)N[C@@H](CC(=O)O)C(=O)N[C@@H](CC(C)C)C(=O)N1CCC[C@H]1C(=O)N[C@@H](CCCNC(=N)N)C(=O)N[C@H](C(=O)N[C@@H](CC(=O)O)C(=O)N[C@H](C(=O)NCC(=O)N[C@@H](CO)C(=O)NCC(=O)N[C@@H](CO)C(=O)N1CCC[C@H]1C(N)=O)C(C)C)[C@@H](C)O [M18] ({C20 diacid-γGlu}-ASQLSTAVLGRLSQELHRLQDLPRTDVGSGSP-NH2) | – | – | – | – | – | – | particularly effective | particularly effective

Further lines, with some results ahead:

Row | Changes in characteristics or properties, 0d [1] | Changes in characteristics or properties, 7d [1] | EC50 (human amylin receptors) | Purity Change% (26d-0d) [1] | SMILES | Concentration change (7d-0d)/% [1] | Purity Change% (7d-0d) [1] | Effect on reducing food intake [2] | Effect on reducing body weight [2]
3 | Clear | Clear | 16 pM | – | CC(C)C[C@H](NC(=O)[C@H](CCCNC(=N)N)NC(=O)CNC(=O)[C@H](CC(C)C)NC(=O)[C@@H](NC(=O)[C@H](C)NC(=O)[C@@H](NC(=O)[C@H](CO)NC(=O)[C@H](CC(C)C)NC(=O)[C@H](CCC(N)=O)NC(=O)[C@H](CO)NC(=O)[C@H](C)NC(=O)CC[C@H](NC(=O)CCCCCCCCCCCCCCCCCCC(=O)O)C(=O)O)[C@@H](C)O)C(C)C)C(=O)N[C@@H](CO)C(=O)N[C@@H](CCC(N)=O)C(=O)N[C@@H](CCC(=O)O)C(=O)N[C@@H](CC(C)C)C(=O)N[C@@H](Cc1c[nH]cn1)C(=O)N[C@@H](CCCNC(=N)N)C(=O)N[C@@H](CC(C)C)C(=O)N[C@@H](CCC(N)=O)C(=O)N[C@@H](CC(=O)O)C(=O)N[C@@H](Cc1ccc(O)cc1)C(=O)N1CCC[C@H]1C(=O)N[C@@H](CCCNC(=N)N)C(=O)N[C@H](C(=O)N[C@@H](CC(=O)O)C(=O)N[C@H](C(=O)NCC(=O)N[C@@H](C)C(=O)NCC(=O)N[C@@H](CO)C(=O)N1CCC[C@H]1C(N)=O)C(C)C)[C@@H](C)O [M19] ({C20 diacid-γGlu}-ASQLSTAVLGRLSQELHRLQDYPRTDVGAGSP-NH2) | No change (a decrease of less than 1% from the initial value to the detected content is denoted as "no change") | No change (a decrease of less than 1% from the initial value to the detected content is denoted as "no change") | prominent effect | prominent effect
4 | Clear | Clear | 16 pM | -3.3% | CC(C)C[C@H](NC(=O)[C@H](CCCNC(=N)N)NC(=O)CNC(=O)[C@H](CC(C)C)NC(=O)[C@@H](NC(=O)[C@H](C)NC(=O)[C@@H](NC(=O)[C@H](CO)NC(=O)[C@H](CC(C)C)NC(=O)[C@H](CCC(N)=O)NC(=O)[C@H](CO)NC(=O)[C@H](C)NC(=O)CC[C@H](NC(=O)CCCCCCCCCCCCCCCCC(=O)O)C(=O)O)[C@@H](C)O)C(C)C)C(=O)N[C@@H](CO)C(=O)N[C@@H](CC(=O)O)C(=O)N[C@@H](CCC(=O)O)C(=O)N[C@@H](CC(C)C)C(=O)N[C@@H](Cc1c[nH]cn1)C(=O)N[C@@H](CCCNC(=N)N)C(=O)N[C@@H](CC(C)C)C(=O)N[C@@H](CCC(N)=O)C(=O)N[C@@H](CC(=O)O)C(=O)N[C@@H](Cc1ccc(O)cc1)C(=O)N1CCC[C@H]1C(=O)N[C@@H](CCCNC(=N)N)C(=O)N[C@H](C(=O)N[C@@H](CC(=O)O)C(=O)N[C@H](C(=O)NCC(=O)N[C@@H](CO)C(=O)NCC(=O)N[C@@H](CO)C(=O)N1CCC[C@H]1C(N)=O)C(C)C)[C@@H](C)O [M39] ({C18 diacid-γGlu}-ASQLSTAVLGRLSDELHRLQDYPRTDVGSGSP-NH2) | No change (a decrease of less than 1% from the initial value to the detected content is denoted as "no change") | No change (a decrease of less than 1% from the initial value to the detected content is denoted as "no change") | – | –
5 | Clear | Clear | 16 pM | -2.93% | CC(C)C[C@H](NC(=O)[C@H](CCCNC(=N)N)NC(=O)CNC(=O)[C@H](CC(C)C)NC(=O)[C@@H](NC(=O)[C@H](C)NC(=O)[C@@H](NC(=O)[C@H](CO)NC(=O)[C@H](CC(C)C)NC(=O)[C@H](CCC(N)=O)NC(=O)[C@H](CO)NC(=O)[C@H](C)NC(=O)[C@H](CCC(=O)O)NC(=O)CCCCCCCCCCCCCCCCC(=O)O)[C@@H](C)O)C(C)C)C(=O)N[C@@H](CO)C(=O)N[C@@H](CC(=O)O)C(=O)N[C@@H](CCC(=O)O)C(=O)N[C@@H](CC(C)C)C(=O)N[C@@H](Cc1c[nH]cn1)C(=O)N[C@@H](CCCNC(=N)N)C(=O)N[C@@H](CC(C)C)C(=O)N[C@@H](CCC(N)=O)C(=O)N[C@@H](CC(=O)O)C(=O)N[C@@H](Cc1ccc(O)cc1)C(=O)N1CCC[C@H]1C(=O)N[C@@H](CCCNC(=N)N)C(=O)N[C@H](C(=O)N[C@@H](CC(=O)O)C(=O)N[C@H](C(=O)NCC(=O)N[C@@H](CO)C(=O)NCC(=O)N[C@@H](CO)C(=O)N1CCC[C@H]1C(N)=O)C(C)C)[C@@H](C)O [M42] ({C18 diacid}-EASQLSTAVLGRLSDELHRLQDYPRTDVGSGSP-NH2) | -3.344% | No change (a decrease of less than 1% from the initial value to the detected content is denoted as "no change") | – | –
